Assay results published in US11957687B2 (REGENERON PHARMACEUTICALS, INC., priority 2019, dated 2024).
Read-outs that look alike come from different tables or passages of the source.

What was measured:
[1] = target: HSD17B2 (Homo sapiens (Human), UniProt P37059); test: HSD17B2 enzymatic blocking assay; assay type: biochemical; conditions: 1.8 μM Estradiol, 650 μM NAD; read-out: Inhibition of HSD17B2 IC50
Outline: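 Mammalian-expressed enzyme at 2 ng/μL in 50 mM Tris-HCl pH 7.5 with detergents/BSA, preincubated 15 min at 20° C. with compound (10-point titration). Reaction with 1.8 μM estradiol and 650 μM NAD ran 45 min at 20° C.; NADH measured by NADH-Glo luminescence and IC50 derived.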

[2] = target: HSD17B13 (Homo sapiens (Human), UniProt Q7Z5P4); test: HSD17B13 enzymatic inhibition assay (150 nM or 50 nM HSD17B13); assay type: biochemical
[3] = target: HSD17B1 (Homo sapiens (Human), UniProt P14061); test: HSD17B1 enzymatic blocking assay; assay type: biochemical; conditions: 25 μM Estradiol, 500 μM NAD; read-out: Inhibition of HSD17B1 IC50
Outline: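 Activity followed as NADH formed on estradiol oxidation, read by NADH-Glo luminescence after 1 h detection in the dark at room temperature. Compounds preincubated with enzyme 30 min at room temperature; 0.5% DMSO and no-substrate controls. IC50 fitted from luminescence.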

[4] = Microsome stability assay, human liver microsomes; assay type: in vitro ADME; conditions: 1 μM compound, 0.5 mg/mL microsomal protein; for microsomal CLint at 1 h, 1 µM / half-life at 1 h, 1 µM / microsomal CLint at 1 μM / half-life at 1 μM: human, human liver microsomes, pooled, NADPH, 37° C.; for microsomal CLint at 1 h, 1 µM / microsomal CLint at 1 μM: read-out: Microsome Stability Human liver microsomes Cl; for half-life at 1 h, 1 µM / half-life at 1 μM: read-out: Microsome Stability Human liver microsomes T½
Outline: (§1)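 Compound at 1 μM incubated at 37° C with pooled human or mouse liver microsomes (0.5 mg/mL protein) plus NADPH regenerating system, sampled at 0–60 min; a 60-min no-NADPH incubation also included. Single replicate; LC/MS/MS disappearance from analyte/internal standard peak area ratios, without standard curve.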

[5] = Microsome stability assay, mouse liver microsomes; assay type: in vitro ADME; conditions: 1 μM compound, 0.5 mg/mL microsomal protein; for microsomal CLint at 1 h, 1 µM / half-life at 1 h, 1 µM / microsomal CLint at 1 μM / half-life at 1 μM: mouse, mouse liver microsomes, pooled, NADPH, 37° C.; for microsomal CLint at 1 h, 1 µM / microsomal CLint at 1 μM: read-out: Microsome Stability Mouse liver microsomes Cl; for half-life at 1 h, 1 µM / half-life at 1 μM: read-out: Microsome Stability Mouse liver microsomes T½
Outline: as §1

[6] = 50 nM HSD17B13, read-out: Inhibition of 50 nM of HSD17B13 IC50

HSD17B1, sequence (P14061 other isoform, or with tags, fused parts or gaps): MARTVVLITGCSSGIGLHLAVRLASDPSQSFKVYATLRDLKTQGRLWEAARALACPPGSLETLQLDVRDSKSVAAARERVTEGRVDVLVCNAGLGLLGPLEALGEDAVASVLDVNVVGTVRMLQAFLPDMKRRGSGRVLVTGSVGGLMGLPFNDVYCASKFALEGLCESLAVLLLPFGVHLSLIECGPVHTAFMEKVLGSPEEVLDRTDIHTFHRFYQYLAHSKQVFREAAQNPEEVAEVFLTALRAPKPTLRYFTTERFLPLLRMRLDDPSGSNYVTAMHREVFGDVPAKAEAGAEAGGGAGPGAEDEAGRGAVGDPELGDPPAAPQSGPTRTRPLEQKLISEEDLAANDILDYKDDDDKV
HSD17B13, sequence (Q7Z5P4 other isoform, or with tags, fused parts or gaps): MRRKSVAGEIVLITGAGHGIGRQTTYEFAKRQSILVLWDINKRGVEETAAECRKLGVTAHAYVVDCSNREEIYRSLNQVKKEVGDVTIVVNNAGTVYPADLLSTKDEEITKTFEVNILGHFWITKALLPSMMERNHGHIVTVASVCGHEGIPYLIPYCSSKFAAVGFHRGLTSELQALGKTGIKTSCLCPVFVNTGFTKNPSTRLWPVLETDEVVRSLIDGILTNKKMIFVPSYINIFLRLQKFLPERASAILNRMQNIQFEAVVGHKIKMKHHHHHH
HSD17B2, sequence (P37059 other isoform, or with tags, fused parts or gaps): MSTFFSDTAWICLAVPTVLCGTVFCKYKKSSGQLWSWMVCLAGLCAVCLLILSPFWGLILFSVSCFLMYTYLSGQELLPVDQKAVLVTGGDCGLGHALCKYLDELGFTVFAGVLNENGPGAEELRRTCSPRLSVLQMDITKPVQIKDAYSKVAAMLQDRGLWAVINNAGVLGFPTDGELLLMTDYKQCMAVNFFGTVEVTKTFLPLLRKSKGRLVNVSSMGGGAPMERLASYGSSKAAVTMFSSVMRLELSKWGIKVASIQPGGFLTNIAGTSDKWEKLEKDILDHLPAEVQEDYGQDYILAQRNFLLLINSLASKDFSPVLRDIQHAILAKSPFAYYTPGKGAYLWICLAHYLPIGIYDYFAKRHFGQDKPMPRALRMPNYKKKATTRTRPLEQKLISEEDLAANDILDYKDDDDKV

Compound	IC50 [1]	IC50 [2, 6]	IC50 [3]	Microsome Stability Human liver microsomes % Remaining @60 min [4]	microsomal CLint at 1 h, 1 µM [4]	half-life at 1 h, 1 µM [4]	Microsome Stability Mouse liver microsomes % Remaining @60 min [5]	microsomal CLint at 1 h, 1 µM [5]	half-life at 1 h, 1 µM [5]	microsomal CLint at 1 μM [4]	half-life at 1 μM [4]	IC50 ([2]; 150 nM HSD17B13, read-out: Inhibition of 150 nM of HSD17B13 IC50)	microsomal CLint at 1 μM [5]	half-life at 1 μM [5]
O=C(NC(c1ccccc1)c1ccc(-c2ccccc2)cc1)c1ccc(C(F)(F)F)[nH]c1=O (stereo not drawn) [Compound 2, N-([1,1′-biphenyl]-4-yl(phenyl)methyl)-2-oxo-6-(trifluoromethyl)-1,2-dihydropyridine-3-carboxamide]	8.02 µM	0.74 µM	> 30 µM	3.40%	110 µL/min/mg	0.21 h	–	–	–	–	–	–	–	–
Cc1ccccc1C(NC(=O)c1ccc(C(F)(F)F)[nH]c1=O)c1ccccc1 (stereo not drawn) [Compound 5, N-(phenyl(o-tolyl)methyl)-2-oxo-6-(trifluoromethyl)-1,2-dihydropyridine-3-carboxamide]	15.3 µM	0.85 µM	> 30 µM	16.00%	52 µL/min/mg	0.444 h	–	–	–	–	–	–	–	–
O=C(NC(c1ccccc1)c1ccccc1Cl)c1ccc(C(F)(F)F)[nH]c1=O (stereo not drawn) [Compound 9, N-((2-chlorophenyl)(phenyl)methyl)-2-oxo-6-(trifluoromethyl)-1,2-dihydropyridine-3-carboxamide]	8.48 µM	–	> 30 µM	82.00%	–	–	16.80%	59.6 µL/min/mg	0.388 h	< 9.6 µL/min/mg	> 2.42 h	–	–	–
Cc1ccc(C(NC(=O)c2ccc(C(F)(F)F)[nH]c2=O)c2ccc(C)cc2)cc1 [Compound 15, N-(di-p-tolylmethyl)-2-oxo-6-(trifluoromethyl)-1,2-dihydropyridine-3-carboxamide]	11.2 µM	0.26 µM	> 30 µM	41.70%	30.2 µL/min/mg	0.765 h	5.60%	96.8 µL/min/mg	0.238 h	–	–	–	–	–
O=C(NC(c1ccc(Cl)cc1)c1ccc(Cl)cc1)c1ccc(C(F)(F)F)[nH]c1=O [Compound 17, N-(bis(4-chlorophenyl)methyl)-2-oxo-6-(trifluoromethyl)-1,2-dihydropyridine-3-carboxamide]	10.9 µM	0.96 µM	> 30 µM	97.60%	–	–	70.60%	10.2 µL/min/mg	2.27 h	< 9.6 µL/min/mg	> 2.42 h	–	–	–
O=C(NC(c1ccccc1)c1ccc(Cl)cc1)c1ccc(C(F)(F)F)[nH]c1=O (stereo not drawn) [Compound 21, N-((4-chlorophenyl)(phenyl)methyl)-2-oxo-6-(trifluoromethyl)-1,2-dihydropyridine-3-carboxamide]	12 µM	0.75 µM	> 30 µM	73.00%	10.8 µL/min/mg	2.14 h	–	–	–	–	–	–	–	–
O=C(NC1c2ccccc2-c2ccccc21)c1ccc(C(F)(F)F)[nH]c1=O [Compound 25, N-(9H-fluoren-9-yl)-2-oxo-6-(trifluoromethyl)-1,2-dihydropyridine-3-carboxamide]	18.2 µM	0.53 µM	> 30 µM	1.00%	265 µL/min/mg	0.087 h	–	–	–	–	–	–	–	–
Cc1ccc(C(NC(=O)c2ccc(C(F)(F)F)[nH]c2=O)c2ccccc2)cc1 (stereo not drawn) [Compound 27, N-(phenyl(p-tolyl)methyl)-2-oxo-6-(trifluoromethyl)-1,2-dihydropyridine-3-carboxamide]	16.8 µM	1.06 µM	> 30 µM	0.40%	511 µL/min/mg	0.0452 h	–	–	–	–	–	0.47 µM	–	–

More lines, now with the values ahead:

IC50 [1]	IC50 [2, 6]	IC50 [3]	Microsome Stability Human liver microsomes % Remaining @60 min [4]	microsomal CLint at 1 h, 1 µM [4]	half-life at 1 h, 1 µM [4]	Microsome Stability Mouse liver microsomes % Remaining @60 min [5]	microsomal CLint at 1 h, 1 µM [5]	half-life at 1 h, 1 µM [5]	microsomal CLint at 1 μM [4]	half-life at 1 μM [4]	IC50 ([2]; 150 nM HSD17B13, read-out: Inhibition of 150 nM of HSD17B13 IC50)	microsomal CLint at 1 μM [5]	half-life at 1 μM [5]	Compound
28.6 µM	0.35 µM	> 30 µM	60.30%	14.8 µL/min/mg	1.56 h	83.80%	–	–	–	–	–	< 9.6 µL/min/mg	> 2.42 h	O=C(Nc1cccc2c(O)cccc12)c1ccc(C(F)(F)F)[nH]c1=O [Compound 223, N-(5-hydroxynaphthalen-1-yl)-2-oxo-6-(trifluoromethyl)-1,2-dihydropyridine-3-carboxamide]
28 µM	0.56 µM	24.8 µM	60.40%	16.4 µL/min/mg	1.41 h	76.60%	–	–	–	–	–	< 9.6 µL/min/mg	> 2.42 h	Nc1cccc2c(NC(=O)c3ccc(C(F)(F)F)[nH]c3=O)cccc12 [Compound 228, N-(5-aminonaphthalen-1-yl)-2-oxo-6-(trifluoromethyl)-1,2-dihydropyridine-3-carboxamide]
40.7 µM	0.21 µM	> 30 µM	83.40%	–	–	94.70%	–	–	< 9.6 µL/min/mg	> 2.42 h	–	< 9.6 µL/min/mg	> 2.42 h	O=C(NC1CCCc2c(O)cccc21)c1ccc(C(F)(F)F)[nH]c1=O (stereo not drawn) [Compound 230, N-(5-hydroxy-1,2,3,4-tetrahydronaphthalen-1-yl)-2-oxo-6-(trifluoromethyl)-1,2-dihydropyridine-3-carboxamide]
> 100 µM	0.03 µM	15.8 µM	78%	–	–	64%	13.4 µL/min/mg	1.72 h	< 9.6 µL/min/mg	> 2.42 h	–	–	–	COc1ccc2c(c1)Sc1cc(OC)ccc1C2NC(=O)c1ccc(C(F)(F)F)[nH]c1=O [Compound 241, N-(3,6-dimethoxy-9H-thioxanthen-9-yl)-2-oxo-6-(trifluoromethyl)-1,2-dihydropyridine-3-carboxamide]
19.3 µM	0.01 µM	5.84 µM	73.50%	11 µL/min/mg	2.1 h	28.60%	41.7 µL/min/mg	0.553 h	–	–	–	–	–	Cc1ccc2c(c1)Sc1cc(C)ccc1C2NC(=O)c1ccc(C(F)(F)F)[nH]c1=O [Compound 252, N-(3,6-dimethyl-9H-thioxanthen-9-yl)-2-oxo-6-(trifluoromethyl)-1,2-dihydropyridine-3-carboxamide]
32.1 µM	0.02 µM	11.1 µM	24.50%	46.9 µL/min/mg	0.492 h	81.70%	–	–	–	–	–	< 9.6 µL/min/mg	> 2.42 h	Cc1ccc2c(c1)Oc1cc(C)ccc1C2NC(=O)c1cc(OC2CCOCC2)c(C(F)(F)F)[nH]c1=O [Compound 260, N-(3,6-dimethyl-9H-xanthen-9-yl)-2-oxo-5-((tetrahydro-2H-pyran-4-yl)oxy)-6-(trifluoromethyl)-1,2-dihydropyridine-3-carboxamide]
29.7 µM	0.43 µM	> 30 µM	73.40%	12.1 µL/min/mg	1.9 h	13.10%	68.2 µL/min/mg	0.338 h	–	–	–	–	–	COc1ccc2c(c1)Sc1ccccc1C2NC(=O)c1ccc(C(F)F)[nH]c1=O (stereo not drawn) [Compound 272, 6-(difluoromethyl)-N-(3-methoxy-9H-thioxanthen-9-yl)-2-oxo-1,2-dihydropyridine-3-carboxamide]
29.2 µM	0.02 µM	7.42 µM	–	–	–	–	–	–	–	–	–	–	–	CCCc1cc(C(=O)NC2c3ccc(C)cc3Oc3cc(C)ccc32)c(=O)[nH]c1C(F)(F)F [Compound 521, N-(3,6-dimethyl-9H-xanthen-9-yl)-2-oxo-5-propyl-6-(trifluoromethyl)-1,2-dihydropyridine-3-carboxamide]
23.2 µM	0.09 µM	17 µM	–	–	–	–	–	–	–	–	–	–	–	N#Cc1ccc2c(c1)Oc1ccccc1C2NC(=O)c1ccc(C(F)(F)F)[nH]c1=O (stereo not drawn) [Compound 528, N-(3-cyano-9H-xanthen-9-yl)-2-oxo-6-(trifluoromethyl)-1,2-dihydropyridine-3-carboxamide]
